Reference: PubChem BioAssay (NCI)
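Grown in 96-well plates, cells were treated for 48 hours with each compound at five concentrations. Insufficient inhibition: endpoint recorded as highest concentration tested. At the TGI there is no net growth.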

How the values were obtained:
Experiment in all cases: NCI tumour cell line growth inhibition, 48 h
XF 498 CNS = test system: XF 498 CNS
SNB-78 CNS = test system: SNB-78 CNS
DMS 273 small cell lung = test system: DMS 273 small cell lung
KM20L2 colon = test system: KM20L2 colon
M19-MEL melanoma = test system: M19-MEL melanoma
LXFL 529 NSCLC = test system: LXFL 529 NSCLC
HOP-18 NSCLC = test system: HOP-18 NSCLC
RXF-631 renal = test system: RXF-631 renal
P388/ADR leukemia = test system: P388/ADR leukemia
SN12K1 renal = test system: SN12K1 renal
P388 leukemia = test system: P388 leukemia

Structure (SMILES)	TGI (XF 498 CNS)	TGI (SNB-78 CNS)	TGI (DMS 273 small cell lung)	TGI (KM20L2 colon)	TGI (M19-MEL melanoma)	TGI (LXFL 529 NSCLC)	TGI (HOP-18 NSCLC)	TGI (RXF-631 renal)	TGI (P388/ADR leukemia)	TGI (SN12K1 renal)	TGI (P388 leukemia)
Nc1ncnc2c1sc(=S)n2-c1ccccc1	> 100 µM	> 100 µM	> 100 µM	> 100 µM	> 100 µM	> 100 µM	> 100 µM	–	–	–	–
CC(=O)Oc1c2c(c(OC(C)=O)c3c1n(C(C)=O)c1ccccc1n3C(C)=O)n(C(C)=O)c1ccccc1n2C(C)=O	–	–	10.6 µM	–	14.4 µM	16.5 µM	–	–	–	–	–
Cc1c(OCCCOc2ccc3c(=O)cc(-c4ccccc4)oc3c2C)ccc2c(=O)cc(-c3ccccc3)oc12	> 100 µM	> 100 µM	> 100 µM	> 100 µM	> 100 µM	> 100 µM	> 100 µM	–	–	–	–
C[N+](C)=c1ccc2nc3c(ccc4ccccc43)oc-2c1	27.4 µM	20.8 µM	39.2 µM	27.1 µM	12.5 µM	19.4 µM	23.6 µM	20.8 µM	–	–	–
CO[C@H]1CC[C@]2(C)C3=CC[C@@]4(C)C(CC[C@@H]4C(C)CC[C@@H](C)C(C)C)C(=CCC2C1)O3 (stereo partly drawn)	> 25 µM	> 25 µM	> 25 µM	> 25 µM	> 25 µM	> 25 µM	> 25 µM	–	–	–	–
Brc1c2nc3ccccc3nc2n2ccc3ccccc3c12	> 100 µM	> 100 µM	> 100 µM	> 100 µM	> 100 µM	> 100 µM	–	–	–	–	–
C[N+](C)(C)CCOC(=O)/C=C/c1cnc[nH]1	> 500 µM	> 500 µM	> 500 µM	> 500 µM	> 500 µM	–	> 500 µM	–	> 316 µM	> 500 µM	> 500 µM
C=C1C2C[C@@H]3OC4CC5O[C@]6(CC5OC4C(C)C3OC(=O)CC3CC[C@@H]4OC5C7OC8C[C@](CCC9CC(=C)[C@H](CCC(C[C@H]1C)O2)O9)(OC7C4O3)O[C@@H]85)C[C@@H]1O[C@@]2(CC(C)[C@@H]3OC(CC(=O)CCO)C(O)C[C@@H]3O2)CC(C)[C@@H]1O6 (stereo partly drawn)	–	1.98 µM	< 0.001 µM	< 0.001 µM	–	1.19 µM	–	–	–	–	–
Cc1c(-c2coc(-c3ccccc3)n2)c(=O)n(-c2ccccc2)n1C	81.7 µM	> 100 µM	> 100 µM	> 100 µM	> 100 µM	> 100 µM	–	–	–	–	–
C/C=C/c1cc2c(c(=O)o1)C(=O)[C@@H](O)[C@H](C)O2	–	42 µM	29.7 µM	30.5 µM	27.2 µM	–	31.9 µM	–	–	31.8 µM	7.15 µM
O=C(NC12CC3CC(CC(C3)C1)C2)C(=O)c1c[nH]c2ccc(Br)cc12	–	> 100 µM	17.6 µM	> 100 µM	–	37.3 µM	44.1 µM	–	–	–	–
Nc1ncnc2c1ncn2CCCC(c1ccccc1)P(=O)(O)O (stereo not drawn)	> 100 µM	> 100 µM	> 100 µM	> 100 µM	> 100 µM	> 100 µM	–	–	–	–	–
CCCCCCCCCCCCCCCCNCC(O)CN (stereo not drawn)	23.9 µM	5.83 µM	14.3 µM	7.19 µM	5.79 µM	–	14 µM	–	–	3.44 µM	2.68 µM
